For one molecule, IC50 results are on record in patent publication US9018219B2, “Fused aminodihydropyrimidine derivative” (Shionogi & Co., Ltd., priority 2010, dated 2015).

Each structure is given as a SMILES string.

The test system of test [1] is Neuroblastoma SH-SY5Y cells (SH/APPwt) with human wild-type β-APP excessively expressed. Description: Measurement of β-amyloid (Aβ) production inhibiting effect in cell. The format is cell-based. The settings on record: 24 hours incubation, Amyloid β 1-40 HTRF in culture supernatant, read-out: IC50 (amount needed to inhibit Aβ production by 50%). As for the experimental part: Neuroblastoma SH-SY5Y cells (SH/APPwt) with human wild-type β-APP excessively expressed therein were prepared at 8×10^5 cells/mL, and 150 μl portions thereof were inoculated into each well of a 96-well culture plate (Falcon). The cells were cultured for 2 hours at 37° C. in a 5% gaseous carbon dioxide incubator. Then, a solution which have been preliminarily prepared by adding and suspending the compound of the present invention (DMSO (dimethyl sulfoxide) solution) so as to be 2 μl/50 μl medium was added to the cell sap. Namely, the final DMSO concentration was 1%, and the amount of the cell culture was 200 μl. After the incubation was performed for 24 hours from the addition of the test compound, 100 μl of the culture supernatant was collected from each fraction. The amount of the Aβ in each fraction was measured.
The Aβ amount was measured as follows. 10 μl of a homogeneous time resolved fluorescence (HTRF) measurement reagent (Amyloid β 1-40 peptide; IBA Molecular Holding, S.A.) and 10 μl of the culture supernatant were put into a 384-well half area microplate (black microplate, Costar) and mixed with each other, and then left standing overnight at 4° C. while the light was shielded. Then, the fluorescence intensity (excitation wavelength: 337 nm, measurement wavelength: 620 nm and 665 nm) was measured with Wallac 1420 multilabel counter (Perkin Elmer life sciences). The Aβ amount was determined from the count rate at each measurement wavelength (10000×Count 665/Count 620), and the amount needed to inhibit Aβ production by 50% (IC50) was calculated from at least six different dosages.

Another test has as its target T1, CYP1A2 (Homo sapiens, UniProt P05177).
T1 construct: enzyme, pooled human hepatic microsome 0.2 mg protein/mL; from tissue
T1 sequence (P05177 1-516): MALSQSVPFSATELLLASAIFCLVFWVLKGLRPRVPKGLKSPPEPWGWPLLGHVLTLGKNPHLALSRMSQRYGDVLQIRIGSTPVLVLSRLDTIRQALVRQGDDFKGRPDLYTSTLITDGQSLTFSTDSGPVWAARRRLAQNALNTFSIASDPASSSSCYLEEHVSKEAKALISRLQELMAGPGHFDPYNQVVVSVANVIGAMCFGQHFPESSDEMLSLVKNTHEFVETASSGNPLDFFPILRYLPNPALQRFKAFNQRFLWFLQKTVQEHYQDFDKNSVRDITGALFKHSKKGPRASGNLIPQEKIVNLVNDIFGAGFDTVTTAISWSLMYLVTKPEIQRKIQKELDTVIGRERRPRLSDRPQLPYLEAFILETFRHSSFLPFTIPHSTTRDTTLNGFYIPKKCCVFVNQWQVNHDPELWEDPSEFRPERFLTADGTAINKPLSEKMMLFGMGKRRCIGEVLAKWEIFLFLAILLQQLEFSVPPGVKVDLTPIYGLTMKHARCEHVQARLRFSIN
Description: CYP inhibition test (CYP1A2). It counts as in vitro ADME. Conditions: pooled human hepatic microsome 0.2 mg protein/mL, 15 minutes, 37° C.; read-out: IC50 CYP1A2 (7-ethoxyresorufin O-deethylation). The text has this: (§1) Using commercially available pooled human hepatic microsome, and employing, as markers, 7-ethoxyresorufin O-deethylation (CYP1A2), tolbutamide methyl-hydroxylation (CYP2C9), mephenyloin 4′-hydroxylation (CYP2C19), dextromethorphan O-demethylation (CYP2D6), and terfenedine hydroxylation (CYP3A4) as typical substrate metabolism reactions of human main five CYP enzyme forms (CYP1A2, 2C9, 2C19, 2D6, 3A4), an inhibitory degree of each metabolite production amount by a compound of the present invention was assessed. […] After the centrifugation at 3000 rpm for 15 minutes, resorufin (CYP1A2 metabolite) in the supernatant was quantified by a multi-label counter and hydroxytolbutamide (CYP2C9 metabolite), 4′-hydroxymephenyloin (CYP2C19 metabolite), dextrorphan (CYP2D6 metabolite), and terfenadine alcohol metabolite (CYP3A4 metabolite) were quantified by LC/MS/MS. Addition of only DMSO being a solvent dissolving a compound to a reaction system was adopted as a control (100%), remaining activity (%) was calculated and IC50 was calculated by reverse presumption by a logistic model using a concentration and an inhibition rate.

For the next test, the target named is T2, CYP2C9 (Homo sapiens, UniProt P11712).
T2 construct: enzyme, pooled human hepatic microsome 0.2 mg protein/mL; from tissue
Description: CYP inhibition test (CYP2C9). Conditions: pooled human hepatic microsome 0.2 mg protein/mL, 15 minutes, 37° C.; read-out: IC50 CYP2C9 (tolbutamide methyl-hydroxylation). The format is in vitro ADME.
Excerpt: as §1

The target in another test is CYP3A4 (Homo sapiens, UniProt P08684). Description: CYP inhibition test (CYP3A4). It counts as in vitro ADME. On the set-up: enzyme, pooled human hepatic microsome 0.2 mg protein/mL; from tissue. Conditions: pooled human hepatic microsome 0.2 mg protein/mL, 15 minutes, 37° C.; read-out: IC50 CYP3A4 (terfenedine hydroxylation).
Excerpt: as §1

T2 sequence (P11712 whole entry): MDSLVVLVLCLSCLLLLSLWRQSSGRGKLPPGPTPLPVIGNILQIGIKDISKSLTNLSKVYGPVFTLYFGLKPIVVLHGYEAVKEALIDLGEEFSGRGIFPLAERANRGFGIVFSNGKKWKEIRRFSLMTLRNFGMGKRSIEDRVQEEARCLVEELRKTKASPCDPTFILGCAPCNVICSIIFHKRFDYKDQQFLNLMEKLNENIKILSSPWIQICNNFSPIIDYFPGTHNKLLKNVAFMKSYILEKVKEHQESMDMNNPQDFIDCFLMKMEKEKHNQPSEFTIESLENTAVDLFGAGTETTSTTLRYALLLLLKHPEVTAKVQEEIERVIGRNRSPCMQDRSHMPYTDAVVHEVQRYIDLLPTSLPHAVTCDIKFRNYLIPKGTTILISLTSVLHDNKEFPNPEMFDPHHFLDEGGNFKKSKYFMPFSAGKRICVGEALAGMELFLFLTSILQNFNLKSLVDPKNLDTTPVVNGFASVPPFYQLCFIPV
Sequence of CYP3A4 (P08684 whole entry): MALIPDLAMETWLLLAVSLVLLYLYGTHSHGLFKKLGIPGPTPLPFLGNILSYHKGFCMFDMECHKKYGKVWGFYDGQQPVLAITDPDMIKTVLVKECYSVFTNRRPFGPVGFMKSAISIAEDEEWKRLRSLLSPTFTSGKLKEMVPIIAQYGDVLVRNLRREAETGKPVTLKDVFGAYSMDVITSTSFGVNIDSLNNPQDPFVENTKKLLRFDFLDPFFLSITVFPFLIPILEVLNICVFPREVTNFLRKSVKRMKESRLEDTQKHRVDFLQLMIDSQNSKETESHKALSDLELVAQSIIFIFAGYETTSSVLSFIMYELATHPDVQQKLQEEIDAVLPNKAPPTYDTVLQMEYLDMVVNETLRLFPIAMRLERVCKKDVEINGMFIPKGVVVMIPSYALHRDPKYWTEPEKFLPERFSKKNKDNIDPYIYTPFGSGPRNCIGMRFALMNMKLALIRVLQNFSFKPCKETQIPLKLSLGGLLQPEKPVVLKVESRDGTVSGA

In the case of `C[C@@]1(c2cc(-c3cccnc3F)ccc2F)Cc2nccn2C(N)=N1` [Compound I-2], the half-inhibitory concentration (IC50) in test [1] is no more than 1 µM; at CYP1A2, greater than 20 µM; on CYP2C9, greater than 20 µM; at CYP3A4 it was greater than 20 µM.
